Where two headings read alike, the source gives them in different places.
Tests used:
[1] = test system: late-stage gametocytes (IV and V) of P. falciparum NF54; assay: Late-stage gametocyte bioluminescence assay, luciferase-expressing NF54; format: cell-based, Plasmodium falciparum; conditions: for Pf gametocytes inhibition: 1 μM
Method: For the in vitro culture of sexual stages of P. falciparum NF54 Luminescent strain, the Tripathi protocol was followed.
Parasite asexual stages were synchronized, and ring-stage parasites were incubated with a parasite-conditioned medium to induce stress and trigger gametocyte induction. After sexually committed parasites invaded new erythrocytes, N-acetylglucosamine was added to prevent further invasion and clear residual asexual parasites.
When a predominance of late stage (IV and V) gametocytes was identified and counted together, , the MACS magnetic system was used for gametocyte enrichment, as previously described. ,
The column content was eluted with RPMI medium into a 15 mL Falcon tube until translucent medium appeared, yielding ∼ 10 mL of eluate. The sample was centrifuged at 1500 rpm for 5 min at 37 °C, the supernatant discarded, and the pellet washed with preheated RPMI medium containing albumax. A 1 μL pellet sample was used to prepare a Giemsa-stained smear for gametocytaemia determination by counting 2000 cells. The gametocytemia for each assay were 71%, 64% and 31%. The remaining pellet was adjusted to 1 mL with RPMI medium containing 10% human serum at 37 °C. Total cell counts were performed using a Neubauer chamber with a 10X diluted sample.
Each well contained 200,000 gametocytes in 150 μL without erythrocytes. After 48 h of incubation, a luciferase kit (Promega) was used to reveal the assay. Eighty microliters of supernatant were discarded, and the pellet was homogenized in the remaining content. Forty microliters of the sample were transferred to a clear 96-well plate containing lysis solution (1X), gently mixed, and moved to a white-bottomed 96-well plate. Luciferase (40 μL) was added, and luminescence was measured using a microplate reader with a 10-s integration time.

[2] = test system: P. berghei exflagellation centers; assay: Ex vivo exflagellation assay, blood of P. berghei infected mice; format: cell-based, Plasmodium berghei; conditions: 5 μM, 15 min incubation
Method: For the ex vivo assays, a female CD1 mouse between 4 and 5 weeks of age (n = 3) was infected with P. berghei. After 4 days, when the presence of parasites (sexual phases) in the blood was observed by Giemsa-stained blood smear microscopy, the total blood from the mouse was collected into a preheated tube at 37 °C containing RPMI medium supplemented with 20% Fetal Bovine Serum (FBS) and 200 units/mL of heparin as an anticoagulant. The tube was maintained at 37 °C and centrifuged at 1500 rpm for 5 min. The supernatant was discarded, and the blood was resuspended in 20 mL of RPMI medium supplemented with 20% FBS.
One milliliter of resuspended blood was added to each well of a 6-well plate containing 5 μM methylene blue (positive control), test compound 1 at 10 μM and 1 μM, and DMSO (negative control). After 15 min, the wells were homogenized, and 10 μL of the content was collected into an Eppendorf tube and incubated at room temperature for another 15 min. The sample was then transferred to a Neubauer chamber, and exflagellation centers were counted using an optical microscope at 40× magnification.

Huh-7 cells = assay: Alamar Blue cell confluency (cytotoxicity) in Huh-7 cells; format: cell-based
Method: For compound dilution, a medium containing 1:1000 gentamicin (G) and 1:300 fungizone (F) was used. Cells were seeded at 1 × 10^4 cells/well in 96-well plates and incubated at 37 °C with 5% CO2. After 24 h, compounds were diluted in RPMI+F+G, and after removal of the culture medium, added to the cells in triplicate. […] Following incubation for 1 h at 37 °C, 5% CO2, the cells were infected with luciferase-expressing P. berghei sporozoites (4,000 parasites per well) freshly extracted from the salivary glands of infected mosquitoes reared at the GIMM insectarium. The viability of Huh-7 cells exposed to the compounds was assessed 46 h later by the AlamarBlue assay (Invitrogen, UK) measurement, and parasite burden was measured 48 h after sporozoite addition using a bioluminescence assay (Biotium). IC50 values were calculated using GraphPad Prism through nonlinear regression analysis of normalized dose–response curves.
On the first day of the assay, the compounds were diluted at 10 and 1 μM in cRPMI medium supplemented with fungizone. and gentamicin. The culture medium of Huh-7 cells was removed and replaced with compound dilutions in triplicate. As a control, a DMSO dilution mimicking the highest compound concentration used was included. The cells were incubated for 1 h at 37 °C in a 5% CO2 atmosphere.
On the second day of the assay, compound toxicity was assessed by measuring cell confluency using the Alamar Blue/CellTiter Blue reagent. First, reagent aliquots stored at −20 °C were thawed and diluted at a 1:20 ratio in cRPMI. The culture medium was removed and replaced with 80 μL of the solution per well, followed by incubation at 37 °C and 5% CO2 for 1 h and 30 min. Fluorescence was measured using a plate reader with the Tecan i-Control software.

[3] = test system: Plasmodium falciparum 3D7 sensitive strain; assay: SYBR Green growth assay, asexual blood stages, 3D7 sensitive strain; format: cell-based
Method: (§1) Parasite strains SB1-A6, 7G8, V1/S, and HB3 were acquired from BEI-MR4, while the ATQ R1 strain, carrying a V259L gene mutation, was generated in-house. […] Parasitemia was monitored using Giemsa-stained blood smears.
(§2) Bioassays were conducted with synchronized ring-stage parasites using sorbitol synchronization. Antimalarial compounds were evaluated in 96-well plates, and parasite growth was assessed using a SYBR Green-based fluorescence assay The assays were conducted when the parasite quantity reached at least 70% of the ring stage. Compounds were initially added at specific concentrations in the first wells, followed by serial dilution (1:2) ranging from 20 μM to 0.009 μM. Subsequently, a solution containing parasites in RPMI medium at a hematocrit of 2% was added to each well, and the parasites were then incubated for 72 h.
(§3) The IC50 values were determined using concentration–response curves generated in GraphPad 8 software. Additionally, the resistance index was calculated by comparing IC50 values obtained for the sensitive 3D7 strain with those of the resistant strains.

[4] = test system: P. berghei hepatic stages; assay: Hepatic stage bioluminescence assay, Huh-7 cells infected with luciferase-expressing sporozoites; format: cell-based, Plasmodium berghei; conditions: read-out: IC50 (μM) Pb liver stages
Method: Huh-7 cells were cultured in RPMI 1640 medium (Sigma) supplemented with 10% v/v fetal bovine serum (FBS), 1% v/v penicillin/streptomycin, 1% v/v glutamine, 1% v/v nonessential amino acids, and 10 mM HEPES, pH 7. For compound dilution, a medium containing 1:1000 gentamicin (G) and 1:300 fungizone (F) was used. Cells were seeded at 1 × 10^4 cells/well in 96-well plates and incubated at 37 °C with 5% CO2. After 24 h, compounds were diluted in RPMI+F+G, and after removal of the culture medium, added to the cells in triplicate. DMSO and atovaquone were used as negative and positive controls, respectively. Following incubation for 1 h at 37 °C, 5% CO2, the cells were infected with luciferase-expressing P. berghei sporozoites (4,000 parasites per well) freshly extracted from the salivary glands of infected mosquitoes reared at the GIMM insectarium. The viability of Huh-7 cells exposed to the compounds was assessed 46 h later by the AlamarBlue assay (Invitrogen, UK) measurement, and parasite burden was measured 48 h after sporozoite addition using a bioluminescence assay (Biotium). IC50 values were calculated using GraphPad Prism through nonlinear regression analysis of normalized dose–response curves.

[5] = test system: P. falciparum oocyst development; design: method as in PMID 12878530, PMID 17361016; conditions: studies primarily focused on P. falciparum; ref 27;28; cited from earlier work
[6] = test system: P. falciparum DHODH strain; assay: SYBR Green growth assay, asexual blood stages, DHODH resistant mutant; format: cell-based, Plasmodium falciparum; conditions: Plasmodium falciparum, 72 h
Method: (§4) Healthy blood samples for parasite culture were obtained from voluntary donors (approved under protocol #28176720.9.0000.0011), processed to remove white blood cells, and stored at 2 °C–8 °C for up to 15 days. Parasite strains SB1-A6, 7G8, V1/S, and HB3 were acquired from BEI-MR4, while the ATQ R1 strain, carrying a V259L gene mutation, was generated in-house. Infected erythrocytes were cultured in RPMI 1640 medium supplemented with Hepes, sodium bicarbonate, glucose, Albumax, and gentamicin, […], and incubated in a 5% CO2, 5% O2, and 90% N2 gas mixture at 37 °C with daily medium changes. Parasitemia was monitored using Giemsa-stained blood smears.
as §2
(§5) To assess parasite growth, the culture medium was replaced with a lysis solution (Trisbase: 49.31%, EDTA: 30.00%, Saponin: 0.16%, Triton: 0.02%) containing the fluorescent dye SYBR Green (Sigma). After a 30 min incubation, fluorescence readings were taken to determine the 50% inhibitory concentration (IC50) of parasite growth. The IC50 values were determined using concentration–response curves generated in GraphPad 8 software. Additionally, the resistance index was calculated by comparing IC50 values obtained for the sensitive 3D7 strain with those of the resistant strains.

[7] = test system: P. berghei sexual phases in An. stephensi; assay: In vivo transmission-blocking assay, P. berghei infected CD1 mice, An. stephensi; design: species or system Plasmodium berghei; conditions: positive control, 25 mg/kg x 2/12h
Method: For this assay, a colony of An. stephensi was used. The lab-reared An. stephensi was kept under controlled conditions, with a temperature of 26 °C ± 1 °C, a 12/12 h light/dark cycle, a relative humidity of 70% ± 10%, and fed a 30% sugar solution as needed.
Female CD1 mice (4 to 6 weeks old) were infected by intraperitoneal inoculation (i.p.) containing 10 million erythrocytes infected with P. berghei expressing the GFP fluorescent protein. After 4 days, when parasites in the sexual stages were detected via Giemsa-stained blood smears, mice with similar gametocytemia and parasitemia were randomly divided into three groups of two animals each. The groups of two mices were treated orally with compound 1 at two doses of 50 mg/kg, spaced 12 h apart. […] Following the second dose, mice were anesthetized and placed in individual cages containing approximately 50 female A. stephensi mosquitoes, which had been starved for 24 h before the assay. Blood feeding lasted for 30 min, after which unfed mosquitoes were removed. Engorged females were maintained in an insectary at 21 ± 1 °C and 60% relative humidity, receiving a 30% glucose solution.
A group of 10 mosquitoes was set aside to assess sporozoite development in salivary glands, following a protocol similar to the one described previously, with dissections performed 21 days postblood meal. Additionally, 10 μL of mouse blood was collected immediately after treatment with the compounds and incubated at room temperature for 15 min. Exflagellation was observed under optical microscopy to evaluate the effect of 4-quinolone-derived molecules on microgametocyte activity.

[8] = test system: P. falciparum V1/S strain; assay: microbe, parasite or virus in culture; format: cell-based, Plasmodium falciparum; conditions: Plasmodium falciparum, 72 h
Method: as §4, §2, §5

P. falciparum HB3 strain = assay: SYBR Green growth assay, asexual blood stages, HB3 strain; format: cell-based, Plasmodium falciparum; conditions: Plasmodium falciparum
Method: as §1, §2, §3

P. falciparum 7G8 strain = assay: SYBR Green growth assay, asexual blood stages, 7G8 strain; format: cell-based, Plasmodium falciparum; conditions: Plasmodium falciparum
Method: as §4, §2, §5

[9] = test system: P. falciparum ATQ_R1 strain; assay: SYBR Green growth assay, asexual blood stages, ATQ_R1 strain; format: cell-based, Plasmodium falciparum; conditions: Plasmodium falciparum, 72 h
Method: as §4, §2, §5

[10] = Plasmodium falciparum, 3D7, 72 h
[11] = Plasmodium falciparum, 3D7, 72 h, asexual blood stages, 3D7 sensitive strain, 72 h, read-out: IC50

CN(C)c1ccc2nc3ccc(=[N+](C)C)cc-3sc2c1 [MB, Methylene blue, reference compound]
inhibition at 5 µM ([1]; Plasmodium falciparum, NF54, 48 h, control at 5 μM, 48 h, read-out: Pf gametocytes Inhibition (%)): 100% | inhibition of exflagellation centers (ex vivo) [2]: completely inhibited | inhibition at 5 µM ([2]; Plasmodium berghei, 0.25 h): 100%

CCCCCCCc1cc(O)c2ccccc2n1 [compound 5, 2-Heptylquinolin-4(1H)-one]
Confluency % (Huh-7 cells; 1 μM): 100 ± 1% | Confluency % (Huh-7 cells; 10 μM): 147 ± 3% | Pf gametocytes inhibition [1]: no activity | inhibition at 20 µM ([1]; Plasmodium falciparum, NF54, 48 h, read-out: Pf gametocytes Inhibition (%)): 25 ± 4% | IC50 [3, 10]: 1 ± 0.2 µM | IC50 ([4]; Plasmodium berghei, Huh-7, 48 h): 0.3 ± 0.01 µM

CCCCN(CCCC)CCC(O)c1cc2c(Cl)cc(Cl)cc2c2cc(C(F)(F)F)ccc12 (centres unmarked) [halofantrine]
concentration required to inhibit oocyst development [5]: around 10 μM

Cc1cc(Nc2ccc(S(F)(F)(F)(F)F)cc2)n2nc(C(C)(F)F)nc2n1 [DSM 265, reference compound]
IC50 [6]: > 10 µM

COc1cc(NC(C)CCCN)c2ncccc2c1 (centres unmarked) [Primaquine, reference compound]
Confluency % (Huh-7 cells; 1 μM): 109 ± 10% | Confluency % (Huh-7 cells; 10 μM): 104.0 ± 0.2% | inhibition of P. berghei oocysts (in vivo) [7]: 100%

2-(4-Chlorophenyl)-6-morpholinoquinolin-4(1H)-one [compound 3]
Pf gametocytes inhibition [1]: no activity | IC50 ([3]; asexual blood stages, 3D7 sensitive strain, 72 h, read-out: IC50): 2.9 µM | IC50 ([4]; Huh-7 cells, 48 h after sporozoite addition): 0.64 ± 0.04 µM

Cc1ccc(-c2cc(O)c3ccccc3n2)cc1 [compound 2, 2-p-Tolylquinolin-4(1H)-one]
Confluency % (Huh-7 cells; 1 μM): 163 ± 14% | Confluency % (Huh-7 cells; 10 μM): 104 ± 4% | IC50 [3, 11]: 11 µM | IC50 ([4]; Plasmodium berghei, Huh-7 cells, 48 h after sporozoite addition): 1.3 ± 0.2 µM

CCN(CC)CCCC(C)Nc1ccnc2cc(Cl)ccc12 (centres unmarked) [Chloroquine, reference compound]
IC50 [3, 10]: 0.006 ± 0.001 µM | IC50 [8]: 0.17 ± 0.09 µM | IC50 (P. falciparum HB3 strain; HB3, 72 h): 0.006 ± 0.002 µM | IC50 (P. falciparum 7G8 strain; 7G8, 72 h): 0.22 ± 0.08 µM

CCc1nc(N)nc(N)c1-c1ccc(Cl)cc1 [Pyrimethamine, reference compound]
IC50 [3, 11]: 0.05 ± 0.008 µM | IC50 [9]: > 10 µM | IC50 [8]: 6 ± 2.4 µM | IC50 (P. falciparum HB3 strain; HB3 strain, 72 h, read-out: IC50): 5.2 ± 0.4 µM | IC50 (P. falciparum 7G8 strain; 7G8 strain, 72 h, read-out: IC50): 6 ± 1 µM

O=c1cc(-c2ccc(N3CCOCC3)cc2)[nH]c2ccccc12 [compound 4, 2-(4-Morfolinofenil)-quinolin-4(1H)-one]
Pf gametocytes inhibition [1]: no activity | IC50 [3, 11]: > 10 µM
